Assays:
[1] = DOX alone or DOX co-treated with the compound
[2] = tested on: Doxorubicin-induced cardiotoxicity; assay: Protection against Doxorubicin-induced cardiotoxicity / cardiac dysfunctions in vivo; settings: among the synthesized new kaurane analogues
[3] = tested on: cerebral ischemia animal model; assay: Cerebral ischemia animal model; format: in vivo; settings: in comparison of control
[4] = tested on: cardiac ischemia animal model by coronary ligation; assay: Cardiac ischemia animal model by coronary ligation; format: in vivo; settings: for area of infraction / cardiac contractility / number of micro-blood vessels: coronary ligation, in comparison of control; for function of failing heart due to acute coronary ligation / occurrence of arrhythmia induced by acute ischemia: in vivo
Excerpt: This invention disclosed that compound 1 and 2 can increased the function of failing heart due to acute coronary ligation.

[5] = tested on: chronic cardiac hypertrophy and heart failure animal induced by TAC; assay: Chronic cardiac hypertrophy and heart failure animal induced by TAC (Thoracic aorta constriction); format: in vivo; settings: for interstitial collagen deposition (histo-pathology) / number of myofibroblasts (histo-pathology) / size of cardiomyocytes (histo-pathology): treated 4 weeks, in comparing to control; for cardiac contractility: treated for consecutive 4 weeks after the surgery, in comparing of control animals
Description: Furthermore, in an embodiment of this invention, a chronic cardiac hypertrophy and heart failure animal was induced by TAC (Thoracic aorta constriction) . The animal was treated with compound 1 and 2 for consecutive 4 weeks after the surgery.

[6] = tested on: drug induced diabetes animal model; assay: Drug induced diabetes animal model with cardiomyopathy; format: in vivo; settings: cardiomyopathy developed after 4 weeks; treatment for 2 weeks
Excerpt: In other embodiment, this invention disclosed that in a drug induced diabetes animal model, cardiomyopathy was developed after 4 weeks. However, the cardiac inflammatory changes were diminished after treatment of compound 1 and 2 for 2 weeks.

[7] = tested on: cardiac toxicity animal induced by other drugs used for chemotherapy; assay: Cardiac toxicity animal induced by other chemotherapy drugs (anthracyclines: epirubicin, daunorubicin, aclarubicin); format: in vivo; settings: cardiac toxicity induced by anthracyclines including epirubicin

SMILES	LC50 of DOX [1] [µM]	protective activity against Doxorubicin-induced cardiotoxicity [2]	area of infraction [3]	movement and behavers [3]	area of infraction [4]	cardiac contractility [4]	number of micro-blood vessels [4]	function of failing heart due to acute coronary ligation [4]	occurrence of arrhythmia induced by acute ischemia [4]	interstitial collagen deposition (histo-pathology) [5]	number of myofibroblasts (histo-pathology) [5]	size of cardiomyocytes (histo-pathology) [5]	cardiac contractility [5]	cardiac inflammatory changes [6]	effects in term of function and pathology [7]
COc1cccc2c1C(=O)c1c(O)c3c(c(O)c1C2=O)C[C@@](O)(C(=O)CO)C[C@@H]3O[C@H]1C[C@H](N)[C@H](O)[C@H](C)O1 [DOX, Doxorubicin, reference compound]	51.56	–	–	–	–	–	–	–	–	–	–	–	–	–	–
C[C@]12CC[C@@H]3C(CC[C@H]4[C@@]3(C)CCC[C@@]4(C)C(=O)O)(C1)[C@H](C(=O)O)[C@H]2O [compound 1, (4R, 4aS, 7S, 8R, 9S, 11aS, 11lbS)-8-hydroxy-4,9, 11b-trimethyltetradecahydro-6a, 9-methanocyclohepta[a]naphthalene-4,7-dicarboxylic acid]	66.62	maximum protective activity	significantly reduced	improved	reduced	significantly increased	increased	increased	reduced	reduced	reduced	significant reduction	significantly enhanced	diminished	Signiant beneficial effects
C[C@]12CC[C@@H]3C(CC[C@H]4[C@@]3(C)CCC[C@@]4(C)C(=O)O)(C1)[C@H](CO)C2=O [compound 3, (4R, 4aS, 7R, 9S, 11aS, 11bS)-7-(hydroxymethyl)-4,9, 11b-trimethyl-8-oxotetradecahydro-6a, 9-methanocyclohepta[a]naphthalene-4-carboxylic acid]	74.83	–	–	–	–	–	–	–	–	–	–	–	–	–	–
C[C@]12CC[C@@H]3C(CC[C@H]4[C@@]3(C)CCC[C@@]4(C)C(=O)O)(C1)[C@H](C=O)[C@H]2O [compound 2, (4R, 4aS, 7S, 8R, 9S, 11aS, 11bS)-7-formyl-8-hydroxy-4,9, llb-trimethyltetradecahydro-6a, 9-methanocyclohepta[a]naphthalene-4-carboxylic acid]	92.61	maximum protective activity	significantly reduced	improved	reduced	significantly increased	increased	increased	reduced	reduced	reduced	significant reduction	significantly enhanced	diminished	Signiant beneficial effects
